Legend:
[1] = tested on: Rattus norvegicus; test: Antialzheimer activity in Sprague-Dawley rat assessed as lowering of amyloid beta level in CSF at 10 mg/kg, po after 4 hrs relative to vehicle-treated control; type: functional
[2] = tested on: Rattus norvegicus; test: Antialzheimer activity in Sprague-Dawley rat assessed as lowering of amyloid beta level in forebrain at 10 mg/kg, po after 4 hrs relative to vehicle-treated control; type: functional
[3] = biological target: Beta-secretase (BACE) (Homo sapiens, UniProt Q9Y5Z0+P56817); test: Inhibition of BACE1/BACE2 (unknown origin) transfected in CHO cells assessed as release of amyloid beta (1 to 40) after 24 hrs by immunoassay; type: cell-based
[4] = biological target: T1, Beta-secretase 2 (Homo sapiens, UniProt Q9Y5Z0); test: Inhibition of recombinant human BACE2 extracellular domain expressed in baculovirus using Q-C(HS03)-lle-Asp-Leu-Ala-Val-Leu-Asp-HN-CH2-CH2-Mca as substrate incubated for 1 hr measured every 1 min for 15 mins by fluorescence assay
T1 sequence (Q9Y5Z0 whole entry): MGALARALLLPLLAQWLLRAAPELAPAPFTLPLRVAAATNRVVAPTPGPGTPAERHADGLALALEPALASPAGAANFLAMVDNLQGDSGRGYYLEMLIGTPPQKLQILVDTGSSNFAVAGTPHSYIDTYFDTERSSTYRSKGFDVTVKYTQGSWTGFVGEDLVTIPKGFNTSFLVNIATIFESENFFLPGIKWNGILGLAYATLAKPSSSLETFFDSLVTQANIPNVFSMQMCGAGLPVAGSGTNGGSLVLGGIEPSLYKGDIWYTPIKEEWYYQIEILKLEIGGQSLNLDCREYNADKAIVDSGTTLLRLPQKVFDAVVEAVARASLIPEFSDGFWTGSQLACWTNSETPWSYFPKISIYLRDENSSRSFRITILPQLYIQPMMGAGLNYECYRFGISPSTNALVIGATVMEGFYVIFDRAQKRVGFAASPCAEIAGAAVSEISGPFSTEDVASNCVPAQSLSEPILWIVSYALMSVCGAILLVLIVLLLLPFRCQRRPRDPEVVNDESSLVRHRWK

[5] = biological target: Beta-secretase 1 (Homo sapiens, UniProt P56817); test: Inhibition of recombinant human BACE1 extracellular domain expressed in baculovirus using Q-C(HS03)-lle-Asp-Leu-Ala-Val-Leu-Asp-HN-CH2-CH2-Mca as substrate incubated for 1 hr measured every 1 min for 15 mins by fluorescence assay
Beta-secretase 1, sequence (P56817 whole entry, the tested form may be a part): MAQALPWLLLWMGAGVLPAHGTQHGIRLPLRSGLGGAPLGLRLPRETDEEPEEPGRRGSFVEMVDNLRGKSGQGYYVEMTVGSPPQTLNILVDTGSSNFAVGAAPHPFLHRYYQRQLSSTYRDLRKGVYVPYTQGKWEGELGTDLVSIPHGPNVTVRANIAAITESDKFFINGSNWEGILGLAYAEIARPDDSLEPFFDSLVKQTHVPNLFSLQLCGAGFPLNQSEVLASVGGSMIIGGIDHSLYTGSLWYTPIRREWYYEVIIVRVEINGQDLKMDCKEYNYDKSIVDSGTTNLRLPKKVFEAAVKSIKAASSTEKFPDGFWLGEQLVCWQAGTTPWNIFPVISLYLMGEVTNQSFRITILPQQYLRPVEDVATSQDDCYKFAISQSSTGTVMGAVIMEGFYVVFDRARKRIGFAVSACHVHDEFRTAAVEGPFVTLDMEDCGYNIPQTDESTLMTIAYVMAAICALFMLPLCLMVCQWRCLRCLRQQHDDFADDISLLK

Compound	Activity [1] [%]	Activity [2] [%]	IC50 [3] [nM]	IC50 [4] [nM]	IC50 [5] [nM]
C[C@]1(c2nc(NC(=O)c3ncc(C#N)cc3Cl)ccc2F)N=C(N)OCC1(F)F	-70.7	-67.1	8		
C[C@]1(c2nc(NC(=O)c3ncc(OCC(F)F)nc3N)ccc2F)N=C(N)OCC1(F)F			440		
C[C@]1(c2nc(NC(=O)c3ncc(Cl)cc3Cl)ccc2F)N=C(N)OCC1(F)F			12		
C[C@]1(c2nc(NC(=O)c3ccc(C#N)cn3)ccc2F)N=C(N)OCC1(F)F			7	66	12
C[C@]1(c2nc(NC(=O)c3nn(C(F)F)cc3Cl)ccc2F)N=C(N)OCC1(F)F	-55.2	-46.6	13		
CC1(C)OC(N)=N[C@](C)(c2nc(NC(=O)c3ncc(C#N)cc3Cl)ccc2F)C1(F)F	-35.3	-20			
C[C@]1(c2nc(NC(=O)c3ncc(C(F)(F)F)cc3Cl)ccc2F)N=C(N)OCC1(F)F	-67.9	-63.6			
